Assay results: patent US20220323429A1, “PIMAVANSERIN FOR TREATING NEURODEGENERATIVE DISEASES” (ACADIA Pharmaceuticals Inc., priority 2019, published 2022)

Assays:
[1] = In-use Stability Assay (HPLC) of pimavanserin 34 mg capsule contents in liquid/soft food vehicles; type: physicochemical; conditions: for Assay: ambient; for Time 0 (%) assay: time 0, average (n=6) accuracy/recovery
Description: Analytical HPLC Stability Study experiments (Example 1) were performed on Agilent 1200 Series, or equivalent; Waters XBridge C18 column, 5 μm 150×4.6 mm; mobile phase: Solvent A: 50 mM ammonium bicarbonate, pH 8.0; Solvent B: acetonitrile/methanol, 80:20 (v/v); Flow rate: 1 mL/min; Inj. Volume 20 μL; Autosampler Temp. 5° C.; column temperature: 40° C., detection UV at 210 nm; sample concentration (as free base) assay: 0.068 mg/mL, impurity: 0.68 mg/mL; standard concentration (as free base) 0.068 mg/mL; PLOQ Std. 0.05% of 0.68 mg/mL; SST solution, 1% of 0.68 mg/mL (impurities A, C, D, E, F, and G); diluent for standards 80/20 (v/v) ethanol/water; diluent for samples, ethanol; run time 40 min; gradient method: 0 min mobile phase A (90%) and mobile phase B (10%) to 30 min mobile phase A (0%), and mobile phase B (100%); then 30.1 min to 40 min mobile phase A (90%), mobile phase B (10%).
The stability of pimavanserin for administration via a nasogastric (NG) tube was assessed by sprinkling the content of one pimavanserin 34 mg capsule in water, applesauce, vanilla Ensure, and non-pulp orange juice. Samples were tested at time 0, 2, 4, and 24 hours after storage at ambient conditions. Samples were prepared in triplicate and average (n=6) accuracy/recovery results from the assay method were used at time 0.
For each sample, one capsule was weighed, and the content of the capsule dropped into a 500 mL volumetric flask containing the amount of vehicle specified in Table 1. The empty capsule shell was weighed and discarded. The flasks were gently swirled to ensure the capsule contents were visually incorporated with the vehicle. The flasks were kept at ambient temperature for each time point 2, 4, and 24 hours. Time 0 samples were processed immediately.
At the specified time point, a stir bar and approximately 450 mL of diluent were added to the flask. The samples were stirred vigorously for 2 hours, and then left on the bench overnight. The following day the flasks were sonicated for approximately 15-30 minutes. The stir bar was removed and rinsed carefully with diluent into the flask, and then the flask was diluted to volume with diluent and mixed well by inversion. An aliquot of each solution was centrifuged for 5 minutes at 10000 rpm. The supernatant was transferred to a HPLC vial and injected for analysis.

[2] = Nasogastric Tube Compatibility Study, assay (HPLC); type: physicochemical
Description: Analytical HPLC Compatibility Study experiments (Example 2) were performed on Agilent 1200 Series, or equivalent; Waters XBridge C18 column, 5 μm 150×4.6 mm; mobile phase: Solvent A: 50 mM ammonium bicarbonate, pH 8.0; Solvent B: acetonitrile/methanol, 80:20 (v/v); Flow rate: 1 mL/min; Inj. Volume 60 μL; Autosampler Temp.: 5° C.; column temperature: 40° C.; the pooled limit of quantitation was 0.05% of 0.68 mg/mL; detection UV at 210 nm; sample concentration (as free base) assay: 0.034 mg/mL, impurity: 0.34 mg/mL; standard concentration (as free base) 0.034 mg/mL; PLOQ Std. 0.05% of 0.34 mg/mL; SST solution, 1% of 0.34 mg/mL (Impurities A, C, D, E, F, and G); diluent for standards 0.1N HCl; diluent for samples 0.1N HCl; run time, 40 min; gradient method: 0 min mobile phase A (90%) and mobile phase B (10%) to 30 min mobile phase A (0%), and mobile phase B (100%); then 30.1 min to 40 min mobile phase A (90%), mobile phase B (10%).
Three samples of pimavanserin in water (n=3) were prepared as follows. The content of one capsule was dropped into a 100 mL bottle, and the empty capsule shell was discarded. Approximately 40 mL of water was added into the bottle, and the bottle was swirled until the contents were disintegrated. Syringes were secured approximately 1 meter above the benchtop, and the plungers were removed. The Hydromer coating on the weighted top of the NG tube was activated by submerging the weight assembly in water for 10 seconds. The NG tube was flushed with 20 mL of water, and remaining water in the syringe and the NG tube was expelled with the help of the syringe plunger. The weighted tip of the NG tube was placed into 100 mL volumetric flasks on the benchtop.
For each sample, the aqueous dispersion was slowly poured into the syringe, allowing it to drain through the NG tube under gravity into the 100 mL collection volumetric flask. The original bottle containing the aqueous suspension of pimavanserin capsules was rinsed twice with 15 mL of water into the same syringe/NG tube system. The dispersion remaining in the syringe and NG tube was expelled with the help of the syringe plunger. Each flask was diluted to volume with 0.33N HCl (to make a final 0.1 N HCl concentration in the flask). The samples were sonicated for 15 minutes with intermediate shaking. A stir bar was added to the flask and the solution was stirred for 2 hours. An aliquot of each solution was centrifuged for 5 minutes at 10000 rom. The supernatant was transferred to a HPLC vial and injected for impurity analysis.
Samples were prepared by transferring the stock solution using a 2.0 mL volumetric pipet into a 20 mL volumetric flask, diluted to volume with 0.1 N HCl, and mixed well by inversion. An aliquot of each solution was centrifuged for 5 minutes at 10000 rpm. The supernatant was transferred to a HPLC vial and injected for analysis.
A “control” sample was prepared following the sample preparation procedure described above except it was not passed through a syringe/NG system. The content of one capsule was dropped into a 100 mL volumetric flask, and the empty capsule shell was discarded. Next 70 mL of water was added into the flask and swirled until the contents were completely disintegrated. The flask was diluted to volume with 0.33 N HCl (to make final 0.1N HCl concentration). The sample was sonicated for 15 minutes with intermediate shaking. A stir bar was dropped into the flask, and the solution was stirred for 2 hours. An aliquot was taken and centrifuged for 5 minutes at 10000 rpm. The supernatant was transferred to a HPLC vial and injected for impurity analysis.

Assay ([1]; 34 mg capsule in Ensure 60 mL, T = 2 h): 100.3% | Assay ([1]; 34 mg capsule in Ensure 60 mL, T = 4 h): 100.7% | Assay ([1]; 34 mg capsule in Ensure 60 mL, T = 24 h): 98.1% | Assay ([1]; 34 mg capsule in applesauce 40 g, T = 2 h): 99.9% | Assay ([1]; 34 mg capsule in applesauce 40 g, T = 4 h): 97.7% | Assay ([1]; 34 mg capsule in applesauce 40 g, T = 24 h): 96.3% | Assay ([1]; 34 mg capsule in non-pulp orange juice 60 mL, T = 2 h): 99.2% | Assay ([1]; 34 mg capsule in non-pulp orange juice 60 mL, T = 4 h): 98.0% | Assay ([1]; 34 mg capsule in non-pulp orange juice 60 mL, T = 24 h): 98.3% | Assay ([1]; 34 mg capsule in water 40 mL, T = 2 h): 97.7% | Assay ([1]; 34 mg capsule in water 40 mL, T = 4 h): 95.6% | Assay ([1]; 34 mg capsule in water 40 mL, T = 24 h): 99.3% | Absolute Difference from Time 0 ([1]; Ensure, T = 2 h): 0.3% | Absolute Difference from Time 0 ([1]; Ensure, T = 4 h): 0.7% | Absolute Difference from Time 0 ([1]; Ensure, T = 24 h): 1.9% | Absolute Difference from Time 0 ([1]; applesauce, T = 2 h): 2.0% | Absolute Difference from Time 0 ([1]; applesauce, T = 4 h): 4.2% | Absolute Difference from Time 0 ([1]; applesauce, T = 24 h): 5.6% | Time 0 (%) assay ([1]; applesauce): 101.9% | Assay values difference from time 0 ([1]; individual capsules, up to 24 hours, all vehicles): ≤ 5% | Absolute Difference from Time 0 ([1]; orange juice, T = 2 h): 1.1% | Absolute Difference from Time 0 ([1]; orange juice, T = 4 h): 2.3% | Absolute Difference from Time 0 ([1]; orange juice, T = 24 h): 2.0% | Time 0 (%) assay ([1]; orange juice): 100.3% | stability in all vehicles ([1]; over 24 hours at ambient room temperature): acceptable | Time 0 (%) assay ([1]; vanilla Ensure): 100.0% | Absolute Difference from Time 0 ([1]; water, T = 2 h): 1.2% | Absolute Difference from Time 0 ([1]; water, T = 4 h): 3.3% | Absolute Difference from Time 0 ([1]; water, T = 24 h): 0.4% | Time 0 (%) assay ([1]; water): 98.9% | Assay (%) ([2]; 34 mg capsule in water passed through syringe/NG tube, sample N = 1): 92.2% | Assay (%) ([2]; 34 mg capsule in water passed through syringe/NG tube, sample N = 2): 92.7% | Assay (%) ([2]; 34 mg capsule in water passed through syringe/NG tube, sample N = 3): 96.3% | Assay (%) ([2]; NG Tube Control: capsule in water, not passed through syringe/NG system): 91.5% | difference of assay between control sample and mean of 3 NG tube samples ([2]; aqueous dispersion of 34 mg capsule): ≤ 2% | effect of in vitro administration through a NG tube on stability ([2]; capsule contents added to different vehicles): no effect | Assay Mean % (n = 6) ([2]; mean of NG tube samples): 93.8%
Structure (SMILES): CC(C)COc1ccc(CNC(=O)N(Cc2ccc(F)cc2)C2CCN(C)CC2)cc1 [Pimavanserin, N-(4-Fluorophenylmethyl)-N-(1-methylpiperidin-4-yl)-N′-(4-(2-methylpropyloxy)phenylmethyl)carbamide]
